Results taken from patent US7595395B2, “Gabaergic agents to treat memory deficits” (priority 2005, dated 2009).
Like-named read-outs stand apart in the source and are kept apart here.

How the values were obtained:
[1] = target: T1, α5β3γ2 benzodiazepine receptor GABA(A) isoform (UniProt P18507+P31644); experiment: Radioligand competition binding, α5β3γ2 BzR/GABA(A) isoform; design: Ki α5; means of two determinations; Ki α5; α5; other: text; species or system human and rat
T1 sequence (P18507 1-475): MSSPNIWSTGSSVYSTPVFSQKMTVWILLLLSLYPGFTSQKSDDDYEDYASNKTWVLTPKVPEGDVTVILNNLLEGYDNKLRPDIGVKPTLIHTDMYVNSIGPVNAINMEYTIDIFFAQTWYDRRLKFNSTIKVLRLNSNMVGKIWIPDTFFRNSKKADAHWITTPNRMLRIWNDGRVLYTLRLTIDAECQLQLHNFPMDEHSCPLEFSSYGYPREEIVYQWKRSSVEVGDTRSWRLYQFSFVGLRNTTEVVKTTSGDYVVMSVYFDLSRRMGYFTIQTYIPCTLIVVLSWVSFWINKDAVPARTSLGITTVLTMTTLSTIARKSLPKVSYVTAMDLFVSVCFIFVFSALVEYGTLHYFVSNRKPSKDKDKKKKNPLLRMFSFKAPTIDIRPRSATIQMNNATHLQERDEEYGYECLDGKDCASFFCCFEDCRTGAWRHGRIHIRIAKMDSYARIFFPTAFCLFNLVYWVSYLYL
T1 sequence (P31644 1-462): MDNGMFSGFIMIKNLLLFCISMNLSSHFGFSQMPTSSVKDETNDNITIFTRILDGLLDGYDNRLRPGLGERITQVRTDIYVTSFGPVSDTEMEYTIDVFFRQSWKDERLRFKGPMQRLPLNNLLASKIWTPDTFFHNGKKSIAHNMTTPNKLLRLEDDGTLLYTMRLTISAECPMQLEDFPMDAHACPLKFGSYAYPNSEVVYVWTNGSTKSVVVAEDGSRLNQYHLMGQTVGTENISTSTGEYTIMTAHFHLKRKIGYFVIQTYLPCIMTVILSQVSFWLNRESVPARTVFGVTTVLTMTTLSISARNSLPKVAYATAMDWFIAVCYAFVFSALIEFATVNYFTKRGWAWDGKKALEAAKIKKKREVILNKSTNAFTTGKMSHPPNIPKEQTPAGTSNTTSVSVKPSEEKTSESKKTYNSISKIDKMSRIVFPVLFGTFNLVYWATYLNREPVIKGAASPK

[2] = target: T2, α2β3γ2 benzodiazepine receptor GABA(A) isoform (UniProt P18507+P47869); experiment: Radioligand competition binding, α2β3γ2 BzR/GABA(A) isoform; design: species or system human and rat; details: means of two determinations, read-out: Ki α2
T2 sequence (P18507 1-475): T1 sequence (P18507 1-475)
T2 sequence (P47869 1-451): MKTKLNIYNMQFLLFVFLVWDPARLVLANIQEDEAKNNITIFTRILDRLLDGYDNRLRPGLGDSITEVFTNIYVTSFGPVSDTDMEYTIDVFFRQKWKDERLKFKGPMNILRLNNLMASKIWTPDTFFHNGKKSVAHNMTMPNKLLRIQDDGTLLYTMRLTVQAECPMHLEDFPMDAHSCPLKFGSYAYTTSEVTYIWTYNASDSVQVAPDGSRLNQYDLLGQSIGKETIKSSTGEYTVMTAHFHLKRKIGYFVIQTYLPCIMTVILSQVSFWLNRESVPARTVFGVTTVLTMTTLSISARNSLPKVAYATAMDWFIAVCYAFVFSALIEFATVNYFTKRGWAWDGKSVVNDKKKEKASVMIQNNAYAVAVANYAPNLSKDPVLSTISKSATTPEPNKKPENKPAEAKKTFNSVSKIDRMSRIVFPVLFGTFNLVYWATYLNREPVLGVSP
Protocol: (§1) The affinity of all ligands at the 6 major recombinant GABAA/BzR subtypes was measured by competition for [^3H]Ro15-1788 binding to HEK-T cells expressing both human and rat GABAA/Bz receptors of composition α1β2γ2 (α1), α2β2γ2 (α2), α3β2γ2 (α3), α4β2γ2 (α4), α5β2γ2 (α5) and α6β2γ2 (α6). It is well known that the β2 and β3 subunits can be interchanged with no effect on Bz ligand affinity or efficacy. […] These studies are similar to those performed in the laboratory of Bryan Roth who has already expressed the receptors employing the work of Kucken et. al. and Gray et. al.
(§2) In brief, for membrane preparations, the cells were scraped on to the ice and diluted into 5 mL of phosphate buffered saline (pH=7.40) and cells pelleted by centrifugation for 5 min. at 4° C. The pellet was resuspended in 1 mL of 50 mM Tris-acetate buffer (pH 7.4) and centrifuged at 18,000 g for 20 min. […] Each pellet were diluted to 6 mL and then 100 μL of membranes were incubated with approximately 1 nM final concentration of [^3H]Ro 15-1788 in a total volume of 250 μL together with serial dilutions of test compound for 90 min. on ice. The membranes were harvested in polyethyleneimine-pretreated Whatman GF/C filters and after drying and addition of scintillation cocktail, counted in a scintillation counter. The cpm retained on the filters was plotted against log concentration (M) and fitted to one site competition equation to obtain the Ki using Graphpad Prizm (V4.0) using the Cheng-Prusoff approximation.

[3] = target: T3, α1β3γ2 benzodiazepine receptor GABA(A) isoform (UniProt P14867+P18507); experiment: Radioligand competition binding, α1β3γ2 BzR/GABA(A) isoform; design: Ki α1; means of two determinations; Ki α1; α1; species or system human and rat; details: means of two determinations, read-out: Ki α1
T3 sequence (P14867 1-456): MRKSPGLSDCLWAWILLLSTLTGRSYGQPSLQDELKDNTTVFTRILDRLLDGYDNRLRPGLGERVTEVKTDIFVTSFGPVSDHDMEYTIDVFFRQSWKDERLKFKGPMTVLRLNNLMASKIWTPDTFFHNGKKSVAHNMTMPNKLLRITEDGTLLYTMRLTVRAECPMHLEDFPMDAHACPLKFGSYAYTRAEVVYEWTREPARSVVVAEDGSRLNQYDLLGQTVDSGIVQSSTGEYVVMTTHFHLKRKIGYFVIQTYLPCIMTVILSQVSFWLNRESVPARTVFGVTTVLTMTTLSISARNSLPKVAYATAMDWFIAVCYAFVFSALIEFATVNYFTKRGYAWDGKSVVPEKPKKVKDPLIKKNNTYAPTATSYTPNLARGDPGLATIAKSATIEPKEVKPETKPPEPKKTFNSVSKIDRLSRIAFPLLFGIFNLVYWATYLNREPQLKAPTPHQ
T3 sequence (P18507 1-475): T1 sequence (P18507 1-475)
Protocol: as §1, §2

[4] = target: T4, α3β3γ2 benzodiazepine receptor GABA(A) isoform (UniProt P18507+P34903); experiment: Radioligand competition binding, α3β3γ2 BzR/GABA(A) isoform; design: species or system human and rat; details: means of two determinations, read-out: Ki α3
T4 sequence (P18507 1-475): T1 sequence (P18507 1-475)
T4 sequence (P34903 1-492): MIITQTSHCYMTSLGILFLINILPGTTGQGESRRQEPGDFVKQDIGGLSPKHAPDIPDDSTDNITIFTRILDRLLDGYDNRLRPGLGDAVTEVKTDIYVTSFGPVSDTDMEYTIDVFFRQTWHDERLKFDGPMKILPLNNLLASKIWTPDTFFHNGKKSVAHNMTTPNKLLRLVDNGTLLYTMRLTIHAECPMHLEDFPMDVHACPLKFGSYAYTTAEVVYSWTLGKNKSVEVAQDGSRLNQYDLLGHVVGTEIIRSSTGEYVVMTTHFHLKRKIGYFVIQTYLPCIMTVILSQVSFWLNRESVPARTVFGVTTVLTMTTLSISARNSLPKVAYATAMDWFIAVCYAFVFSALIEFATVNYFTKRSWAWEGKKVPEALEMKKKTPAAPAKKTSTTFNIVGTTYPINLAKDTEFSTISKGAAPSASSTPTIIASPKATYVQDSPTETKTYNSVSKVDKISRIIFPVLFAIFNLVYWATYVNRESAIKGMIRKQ
Protocol: as §1, §2

[5] = target: α6β3γ2 benzodiazepine receptor GABA(A) isoform (UniProt P18507+Q16445); experiment: Radioligand competition binding, α6β3γ2 BzR/GABA(A) isoform; design: species or system human and rat; details: means of two determinations, read-out: Ki α6
Protocol: as §1, §2

GABAA/α1 receptors = GABAA/α1 receptors (Homo sapiens, UniProt P14867+P18507); details: Huang et al. 2000; cited from earlier work
[6] = test system: alcohol preferring rats (P) and high alcohol drinking rats (HAD); details: cited from earlier work
[7] = read-out: Ki α5; Table I; means of two determinations
[8] = Table 2; means of two determinations; read-out: Ki α5
[9] = read-out: Ki α5; Table 2; means of two determinations

Sequence of GABAA/α1 receptors (P28472 26-473 partner, one chain of several): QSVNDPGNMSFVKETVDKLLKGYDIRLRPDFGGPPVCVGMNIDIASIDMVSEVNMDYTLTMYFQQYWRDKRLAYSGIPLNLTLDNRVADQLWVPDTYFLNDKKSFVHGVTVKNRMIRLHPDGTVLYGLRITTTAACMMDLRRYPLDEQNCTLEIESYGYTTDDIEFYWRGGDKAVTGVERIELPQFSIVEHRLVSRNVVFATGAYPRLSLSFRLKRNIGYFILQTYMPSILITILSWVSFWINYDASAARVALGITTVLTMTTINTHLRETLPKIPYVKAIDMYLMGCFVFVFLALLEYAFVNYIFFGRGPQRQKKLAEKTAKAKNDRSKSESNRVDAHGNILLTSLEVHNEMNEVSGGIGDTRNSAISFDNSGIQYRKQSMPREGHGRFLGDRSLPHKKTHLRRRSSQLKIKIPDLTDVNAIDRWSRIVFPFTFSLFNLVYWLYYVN

SMILES | Ki [1, 7] [nM] | Ki ([2]; Table I) [nM] | Ki ([3]; Table I) [nM] | Ki ([4]; Table I) [nM] | Ki ([5]; Table I) [nM] | Ki ([2]; Table 2) [nM] | Ki ([3]; Table 2) [nM] | Ki ([4]; Table 2) [nM] | Ki ([5]; Table 2) [nM] | further results
C#CC#Cc1ccc2c(c1)C(=O)N1CCC[C@H]1c1c(C(=O)OCC)ncn1-2 [Ligand 14] | 64 |  |  |  |  |  |  |  |  | 
CN1Cc2c(CCl)ncn2-c2ccc(Cl)cc2C1=O [Ligand 12b] | 28.5 | > 300 | > 300 | > 300 | > 300 |  |  |  |  | 
CCOC(=O)c1ncoc1-c1ncn2c1[C@@H]1CCN1C(=O)c1cc(Br)ccc1-2 [RY062] |  |  |  |  |  | > 1000 | > 1000 | > 500 | > 2000 | Ki [1, 8]: 172 nM
CCOCc1ncn2c1CN(C)C(=O)c1cc(Cl)ccc1-2 [Ligand 12c] | 82.7 | > 300 | > 300 | > 300 | > 300 |  |  |  |  | 
CC(C)(C)OC(=O)c1cc2c(cn1)[nH]c1ccccc12 [BCCt, β-carboline-3-carboxylate-tbutyl ester] |  |  |  |  |  |  |  |  |  | selectivity for α1 over other BzR subtypes (GABAA/α1 receptors): 20 fold; alcohol self administration (in words) ([6]; P and HAD rats, June et al. 2003, Foster et al. 2004): potently reduced alcohol self administration; anxiolytic activity (in words) ([6]; P and HAD rats): exhibits anxiolytic activity; sedative-hypnotic effects of alcohol (in words) ([6]; P rats and HAD rats): antagonized the sedative-hypnotic effects of alcohol
CCOC(=O)c1ncoc1-c1ncn2c1[C@@H]1CCN1C(=O)c1cc(C#C[Si](C)(C)C)ccc1-2 [RY068] |  |  |  |  |  | 877 | > 500 | 496 | > 1000 | Ki [1, 9]: 37 nM
C#Cc1ccc2c(c1)C(=O)N1CC[C@H]1c1c(-c3ocnc3C(=O)OCC)ncn1-2 [RY069] |  |  |  |  |  | 622 | 692 | 506 | > 1000 | Ki [1, 9]: 19 nM
C#Cc1ccc2c(c1)C(=O)N1CC[C@@H]1c1c(-c3nc(C)no3)ncn1-2 [RY-I-29] |  | > 1000 | > 1000 | > 1000 | > 1000 | > 1000 | > 1000 | > 1000 | > 1000 | Ki [1, 8]: 157 nM; Ki ([1]; Table I; means of two determinations; read-out: Ki α5): 157 nM
